In patent publication US20250161476A1 (REGENERON PHARMACEUTICALS, INC., priority 2020, published 2025):
Where a SMILES comes first, the peptide text is derived from it. [ ]: non-standard residue; d: D form. The star is where a group is joined. Bip(2'-Et,4'-O(CH2)4NH2) = CCc1cc(OCCCCN)ccc1-c1ccc(C[C@H](N)C(=O)O)cc1; Malonyl(2,2-Me2,histaminyl) = CC(C)(C(=O)NCCc1cnc[nH]1)C(=O)*; Nva(5-(3,5-Me2Ph)) = Cc1cc(C)cc(CCC[C@H](N)C(=O)O)c1; Ala(1H-tetrazol-5-yl) = N[C@@H](Cc1nnn[nH]1)C(=O)O; αMePhe(2-F) = C[C@](N)(Cc1ccccc1F)C(=O)O; NHPh = c1ccc(N*)cc1

Key:
human GLP1R [1] = target: T1, human GLP1R (Homo sapiens (Human), UniProt P43220); experiment: Human GLP1R cAMP accumulation assay (HEK293 cells over-expressing human GLP-1R); assay type: cell-based; conditions: HEK293/hGLP1R cells, 30 min
T1 sequence (P43220 24-463): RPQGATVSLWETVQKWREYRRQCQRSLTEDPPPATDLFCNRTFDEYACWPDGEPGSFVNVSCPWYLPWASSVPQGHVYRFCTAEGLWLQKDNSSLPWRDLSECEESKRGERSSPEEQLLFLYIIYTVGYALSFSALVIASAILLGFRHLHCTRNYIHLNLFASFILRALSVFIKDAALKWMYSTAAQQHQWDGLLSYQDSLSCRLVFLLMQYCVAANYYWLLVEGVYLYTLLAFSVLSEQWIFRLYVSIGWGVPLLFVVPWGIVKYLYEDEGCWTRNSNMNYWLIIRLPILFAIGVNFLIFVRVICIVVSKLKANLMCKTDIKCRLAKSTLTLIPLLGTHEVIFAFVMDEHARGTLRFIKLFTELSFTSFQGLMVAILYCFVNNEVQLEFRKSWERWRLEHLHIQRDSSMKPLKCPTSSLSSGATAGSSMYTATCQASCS
Procedure: The functional activity of the test compounds for agonizing GLP1R were evaluated using a cell-based assay. For the assay, HEK293 cells over-expressing full length human GLP-1R were utilized and the downstream cAMP accumulation was assessed as a measure of human GLP-1R stimulation. […] Diluted compounds were transferred to OptiPlates (100 nL/well) using an Echo liquid handler. HEK293/hGLP1R cells were thawed in 37° C. water-bath, washed 2 times with HBSS and re-suspended in assay buffer (HBSS+5 mM HEPES+500 μM IBMX+0.1% BSA). […] After centrifugation, the assay plate was incubated at 23° C. for 30 min. The reaction was terminated by adding 10 μL of lysis buffer containing D2-cAMP and a cAMP-antibody from the cyclic AMP immunoassay kit (Cisbio, Cat #62AM4PEJ). […] The levels of cAMP per well were calculated using a standard curve generated by GraphPad Prism. […] EC50 values were fitted from a four-parameter logistic equation over a 10-point response curve (GraphPad Prism).

HEK293/CRE-Luc cells = experiment: cAMP responsive luciferase reporter assay, HEK293/CRE-Luc cells (no hGLP1R expression); assay type: cell-based, human
Description: (§1) To test the activity of GLP1R agonist payloads, GLP1R agonist linker-payloads (LPs), and anti-GLP1R antibody tethered drug conjugates (ATDCs) of the disclosure, a cell-based cAMP responsive luciferase reporter assay was developed. To generate the assay cell line, the firefly luciferase gene was placed under the control of a cAMP response element (CRE) located upstream of a minimal promoter and transfected into HEK293 cells and referred to herein as HEK293/CRE-Luc cells.
(§2) Three-fold serial dilutions of free payloads or LPs were prepared in 100% DMSO, transferred to fresh assay media, and added to the cells at a final constant DMSO concentration of 0.2%. The last well in the plate served as a blank control containing only the assay media and 0.2% DMSO (untreated well) and was plotted as a continuation of the 3-fold serial dilution. Four to six hours later, luciferase activity was determined after the addition of One-Glo™ reagent (Promega, Cat #E6130) to each well. Relative light units (RLUs) were measured on an Envision luminometer (PerkinElmer) and EC50 values were determined using a four-parameter logistic equation over a 12-point dose response curve (GraphPad Prism). The signal to noise (S/N) was determined by taking the ratio of the highest RLU on the dose response curve to the RLU in the untreated wells.

human GLP1R [2] = target: T1, human GLP1R; experiment: cAMP responsive luciferase reporter assay, HEK293/CRE-Luc/hGLP1R cells; assay type: cell-based; conditions: for HEK293/CRE-LUC/hGLP1R S/N: highest RLU / RLU of untreated wells; for HEK293/CRE-LUC/hGLP1R Relative Potency (% P8 EC50) / HEK293/CRE-LUC/hGLP1R Relative Signal:Noise (% P8): relative to P8 of the same experiment
Description: as §1, §2
GLP1R agonist linker payloads were conjugated to anti-hGLP1R antibodies via N-terminal heavy or light chain Q tags. Several resulting anti-GLP1R antibody tethered drug conjugates (ATDCs) were tested for activity in the HEK293/CRE-Luc/hGLP1R reporter assay as described above for the free GLP1R payload and linker-payload agonists.

[3] = Plasma stability of payloads and linker-payloads, human plasma; assay type: in vitro ADME
Procedure: The plasma stability of payloads and linker payloads of the disclosure were measured. For the assay, pooled frozen plasma (human, mouse or monkey) was thawed in cold water or a 37° C. water bath prior to experiment. Plasma was centrifuged at 4000 rpm for 5 min if any clots were observed, they were subsequently removed. If required, the pH was adjusted to 7.4±0.1. For the preparation of compounds and positive controls, a 1 mM intermediate solution was prepared by diluting 10 μL of their stock solution with 90 μL DMSO; a 1 mM intermediate solution of the positive control (Propantheline) was prepared by diluting 10 μL of its stock solution with 90 μL ultrapure water. […] 98 μL of plasma was spiked with 2 μL of dosing solution (100 μM) to achieve the final concentration of 2 μM in duplicate. Samples were then incubated at 37° C. in a water bath. […] At each time point, 400 μL of stop solution (200 ng/mL tolbutamide plus 200 ng/mL labetalol in 50% ACN/MeOH) was added to precipitate protein and mixed thoroughly. Sample plates were then centrifuged at 4,000 rpm for 10 min. An aliquot of supernatant (50 μL) was transferred from each well and mixed with 100 μL ultra-pure water. The samples were then shaken at 800 rpm for approximately 10 min before submitting for LC-MS/MS analysis.

Row | EC50 (human GLP1R [1]) | Structure (SMILES) | EC50 (HEK293/CRE-Luc cells) | HEK293/CRE-LUC S/N (HEK293/CRE-Luc cells) | HEK293/CRE-LUC/hGLP1R S/N (human GLP1R [2]) | HEK293/CRE-LUC/hGLP1R Relative Potency (% P8 EC50) (human GLP1R [2]) | HEK293/CRE-LUC/hGLP1R Relative Signal:Noise (% P8) (human GLP1R [2]) | Human plasma stability assay T½ ([3]; tested for 3 days (C)) | half-life at 2 µM ([3]; human, pooled plasma, pH 7.4, payload properties table, species not given, read-out: Plasma stability t½ (converted)) | Human plasma stability assay T½ ([3]; tested for 2 hrs (B))
1 | 0.458 nM | CCc1cc(OCCCCNC(=O)CNC(=O)CNC(=O)CNC(=O)CNC(=O)[C@H](CO[C@@H]2OC(CO)[C@@H](O)[C@H](O)C2O)NC(=O)CCNC(=O)OC[C@@H]2[C@@H]3CCC#CCC[C@@H]32)ccc1-c1ccc(C[C@H](NC(=O)[C@H](CC(=O)O)NC(=O)[C@H](CO)NC(=O)[C@@H](NC(=O)[C@](C)(Cc2ccccc2F)NC(=O)[C@@H](NC(=O)CNC(=O)[C@H](Cc2nn[nH]n2)NC(=O)C(C)(C)C(=O)NCCc2cnc[nH]2)[C@@H](C)O)[C@@H](C)O)C(=O)N[C@@H](CCCc2cc(C)cc(C)c2)C(N)=O)cc1 (some centres unmarked) [LP18, BCN-NHC2H4CO-(glucose) SG4-P9] |  |  |  |  |  |  |  | 
2 |  | CCc1cc(OCCCCN)ccc1-c1ccc(C[C@H](NC(=O)[C@H](CC(=O)O)NC(=O)[C@H](CO)NC(=O)[C@@H](NC(=O)[C@](C)(Cc2ccccc2F)NC(=O)[C@@H](NC(=O)CNC(=O)[C@H](CCC(N)=O)NC(=O)C(C)(C)C(=O)NCCc2cnc[nH]2)[C@@H](C)O)[C@@H](C)O)C(=O)N[C@@H](CCCc2cc(C)cc(C)c2)C(N)=O)cc1 [P21] | > 200 nM | 1.3 | 58.8 | 0.7% | 89.5% | >173.4 h | > 57.8 h | 
3 |  | CCc1cc(OCCCCN)ccc1-c1ccc(C[C@H](NC(=O)[C@H](CC(=O)O)NC(=O)[C@H](CO)NC(=O)[C@@H](NC(=O)[C@](C)(Cc2ccccc2F)NC(=O)[C@@H](NC(=O)CNC(=O)[C@H](Cc2nn[nH]n2)NC(=O)C(C)(C)C(=O)NCCc2cnc[nH]2)[C@@H](C)O)[C@@H](C)O)C(=O)N[C@@H](CCCc2cc(C)cc(C)c2)C(=O)Nc2ccccc2)cc1 [P23] ({Malonyl(2,2-Me2,histaminyl)}-[Ala(1H-tetrazol-5-yl)]GT[αMePhe(2-F)]TSD[Bip(2'-Et,4'-O(CH2)4NH2)][Nva(5-(3,5-Me2Ph))]-NHPh) | > 200 nM | 1.6 | 57.1 | 103.0% | 86.9% |  |  | 10.74 h
